Experimental data: ChEMBL document CHEMBL1149074, “Eusynstyelamide, a highly modified dimer peptide from the ascidian Eusynstyela misakiensis” (J Nat Prod, 1994)

System: HCT-116
Assay: Cytotoxicity against human HCT116 cells upto 100 ug/ml after 72 hrs by XTT assay
Type: functional, cell-based

N=C(N)NCCCCNC(=O)C(O)(O)C(c1c[nH]c2cc(Br)ccc12)C(O)(Cc1c[nH]c2cc(Br)ccc12)C(=O)NCCCCNC(=N)N (stereo unspecified)
Activity: Not toxic
